Source: patent EP0326331B1, “Substituted quinolines and cinnolines” (Dow AgroSciences LLC, priority 1988, dated 1989)

Experiments:
Format in all cases: in vivo
[1] = tested on: Erysiphe graminis tritici (powdery mildew); assay: Test 1 greenhouse foliar spray screen, powdery mildew on wheat; settings: disease control rating, foliar spray on wheat, 400 ppm (+++ at 100 ppm)
[2] = tested on: Pyricularia oryzae (rice blast); assay: whole plant or invertebrate; settings: disease control rating, foliar spray on rice, 400 ppm (+++ at 100 ppm)
[3] = tested on: Puccinia recondita tritici (leaf rust); assay: Test 1 greenhouse foliar spray screen, leaf rust on wheat; settings: disease control rating, foliar spray on wheat, 400 ppm (+++ at 100 ppm)
[4] = tested on: Botrytis cinerea (gray mold); assay: Test 1 greenhouse foliar spray screen, gray mold on grape berries; settings: disease control rating, spray on grape berries, 400 ppm (+++ at 100 ppm)
[5] = tested on: Pseudoperonospora cubensis (downy mildew); assay: Test 1 greenhouse foliar spray screen, downy mildew on squash; settings: disease control rating, foliar spray on squash, 400 ppm (+++ at 100 ppm)
[6] = tested on: southern armyworm (Spodopetra eridania Cramer); assay: Mite/insect screen, SAW; settings: Spodoptera eridania, percent mortality, SAW, read-out: SAW RESULTS %; for mortality at 200 ppm: SM & MA RATE 200 PPM; for mortality at 400 ppm: SM & MA RATE 400 PPM
Procedure: (§1) The compounds of Examples 1-295 were tested for miticidal and insecticidal activity in the following mite/insect screen.
(§2) Each test compound was formulated by dissolving the compound in acetone/alcohol (50:50) mixture containing 23 g of "TOXIMUL R" (sulfonate/nonionic emulsifier blend) and 13 g of "TOXIMUL S" (sulfonate/nonionic emulsifier blend) per liter. These mixtures were then diluted with water to give the indicated concentrations.
(§3) Other plants in the same treatment pot were left uninfested. The leaves were then sprayed with 5 ml of test solution using a DeVilbiss atomizing sprayer at 10 psi. Both surfaces of the leaves were covered until runoff, and then allowed to dry for one hour. Two uninfested leaves were then excised and placed into a Petri dish containing southern armyworm (Spodopetra eridania Cramer).
(§4) After standard exposure periods, percent mortality was evaluated. […]

[7] = tested on: Twospotted spider mites (Tetranychus urticae Koch); assay: Mite/insect screen, SM; settings: for mortality at 200 ppm / mortality at 400 ppm: Tetranychus urticae, percent mortality, SAW, read-out: SM RESULTS %; for mortality at 200 ppm: SM & MA RATE 200 PPM; for mortality at 400 ppm: SM & MA RATE 400 PPM
Procedure: as §1, §2, §3, §4

[8] = tested on: melon aphids (Aphis gossypii Glover); assay: Mite/insect screen, MA; settings: Aphis gossypii, percent mortality, SAW, read-out: MA RESULTS %; for mortality at 200 ppm: SM & MA RATE 200 PPM; for mortality at 400 ppm: SM & MA RATE 400 PPM
Procedure: as §1, §2, §3, §4

corn rootworm = assay: Mite/insect screen, CRW; settings: percent mortality, read-out: CRW RESULTS %; for mortality at 12 ppm: CRW RATE 12.00 PPM; for mortality at 24 ppm: CRW RATE 24.00 PPM
Procedure: as §1, §2, §4

FC(F)(F)c1cccc2c(NCCc3ccc(Cl)cc3)ccnc12 [Example 86, N-[2-(4-chlorophenyl)ethyl]-8-(trifluoromethyl)-4-quinolinamine]
POWD MDEW [1]: - (0-19% control at 400 ppm)
RICE BLAST [2]: - (0-19% control at 400 ppm)
LEAF RUST [3]: + (20-89% control at 400 ppm)
GRAY MOLD [4]: - (0-19% control at 400 ppm)
DOWN MDEW [5]: + (20-89% control at 400 ppm)
mortality at 200 ppm [6]: 0%
mortality at 400 ppm [6]: 0%
mortality at 200 ppm [7]: 0%
mortality at 400 ppm [7]: 0%
mortality at 200 ppm [8]: 0%
mortality at 400 ppm [8]: 0%
mortality at 12 ppm (corn rootworm): 0%
mortality at 24 ppm (corn rootworm): 0%

Fc1cccc2c(NCCc3ccc(Oc4ccccc4)cc3)ccnc12 [Example 90, 8-fluoro-N-[2-(4-phenoxyphenyl)ethyl]-4-quinolinamine]
POWD MDEW [1]: - (0-19% control at 400 ppm)
RICE BLAST [2]: +++ (90-100% control at 100 ppm)
LEAF RUST [3]: +++ (90-100% control at 100 ppm)
GRAY MOLD [4]: - (0-19% control at 400 ppm)
DOWN MDEW [5]: +++ (90-100% control at 100 ppm)
mortality at 200 ppm [6]: 100%
mortality at 400 ppm [6]: 0%
mortality at 200 ppm [7]: 80%
mortality at 400 ppm [7]: 0%
activity as miticides ([7]; summary statement in the description): particularly excellent activity
mortality at 200 ppm [8]: 80%
mortality at 400 ppm [8]: 0%
mortality at 12 ppm (corn rootworm): 0%
mortality at 24 ppm (corn rootworm): 0%

COc1ccccc1CCNc1ccnc2cc(Cl)ccc12 [Example 100, 7-chloro-N-[2-(2-methoxyphenyl)ethyl]-4-quinolinamine]
POWD MDEW [1]: + (20-89% control at 400 ppm)
RICE BLAST [2]: + (20-89% control at 400 ppm)
LEAF RUST [3]: + (20-89% control at 400 ppm)
GRAY MOLD [4]: - (0-19% control at 400 ppm)
DOWN MDEW [5]: + (20-89% control at 400 ppm)
mortality at 200 ppm [6]: 0%
mortality at 400 ppm [6]: 0%
mortality at 200 ppm [7]: 0%
mortality at 400 ppm [7]: 0%
mortality at 200 ppm [8]: 0%
mortality at 400 ppm [8]: 0%
mortality at 12 ppm (corn rootworm): 0%
mortality at 24 ppm (corn rootworm): 0%

Cc1cc(NCCc2ccc(Cl)cc2)c2ccccc2n1 [Example 102, N-[2-(4-chlorophenyl)ethyl]-2-methyl-4-quinolinamine]
POWD MDEW [1]: + (20-89% control at 400 ppm)
RICE BLAST [2]: + (20-89% control at 400 ppm)
LEAF RUST [3]: - (0-19% control at 400 ppm)
GRAY MOLD [4]: - (0-19% control at 400 ppm)
DOWN MDEW [5]: - (0-19% control at 400 ppm)
mortality at 200 ppm [6]: 0%
mortality at 400 ppm [6]: 50%
mortality at 200 ppm [7]: 0%
mortality at 400 ppm [7]: 0%
mortality at 200 ppm [8]: 0%
mortality at 400 ppm [8]: 0%
mortality at 12 ppm (corn rootworm): 0%
mortality at 24 ppm (corn rootworm): 0%

Cc1ccc(C)c2c(NCCc3ccc(Cl)cc3)ccnc12 [Example 109, N-[2-(4-chlorophenyl)ethyl]-5,8-dimethyl-4-quinolinamine]
POWD MDEW [1]: + (20-89% control at 400 ppm)
RICE BLAST [2]: + (20-89% control at 400 ppm)
LEAF RUST [3]: ++ (90-100% control at 400 ppm)
GRAY MOLD [4]: - (0-19% control at 400 ppm)
DOWN MDEW [5]: +++ (90-100% control at 100 ppm)
mortality at 400 ppm [6]: 0%
mortality at 400 ppm [7]: 0%
mortality at 400 ppm [8]: 0%
mortality at 24 ppm (corn rootworm): 0%

Nc1cccc2c(NCCc3ccc(Cl)cc3)ccnc12 [Example 110, N(4)-[2-(4-chlorophenyl)ethyl]-4,8-quinolinediamine]
POWD MDEW [1]: - (0-19% control at 400 ppm)
RICE BLAST [2]: + (20-89% control at 400 ppm)
LEAF RUST [3]: ++ (90-100% control at 400 ppm)
GRAY MOLD [4]: - (0-19% control at 400 ppm)
DOWN MDEW [5]: ++ (90-100% control at 400 ppm)
mortality at 200 ppm [6]: 0%
mortality at 400 ppm [6]: 0%
mortality at 200 ppm [7]: 0%
mortality at 400 ppm [7]: 0%
mortality at 200 ppm [8]: 0%
mortality at 400 ppm [8]: 0%
mortality at 12 ppm (corn rootworm): 0%
mortality at 24 ppm (corn rootworm): 0%

Clc1ccccc1CCNc1ccnc2c(Cl)cccc12 [Example 115, N-[2-(2-chlorophenyl)ethyl]-8-chloro-4-quinolinamine]
POWD MDEW [1]: - (0-19% control at 400 ppm)
RICE BLAST [2]: + (20-89% control at 400 ppm)
LEAF RUST [3]: - (0-19% control at 400 ppm)
GRAY MOLD [4]: - (0-19% control at 400 ppm)
DOWN MDEW [5]: + (20-89% control at 400 ppm)
mortality at 200 ppm [6]: 0%
mortality at 400 ppm [6]: 0%
mortality at 200 ppm [7]: 0%
mortality at 400 ppm [7]: 0%
mortality at 200 ppm [8]: 0%
mortality at 400 ppm [8]: 0%
mortality at 12 ppm (corn rootworm): 0%
mortality at 24 ppm (corn rootworm): 0%

CC(=O)N(CCc1ccc(Cl)cc1)c1ccnc2ccc(F)cc12 [Example 121, N-[2-(4-chlorophenyl)ethyl]-N-(6-fluoro-4-quinolinyl)acetamide]
POWD MDEW [1]: + (20-89% control at 400 ppm)
RICE BLAST [2]: - (0-19% control at 400 ppm)
LEAF RUST [3]: ++ (90-100% control at 400 ppm)
GRAY MOLD [4]: - (0-19% control at 400 ppm)
DOWN MDEW [5]: + (20-89% control at 400 ppm)
mortality at 200 ppm [6]: 0%
mortality at 400 ppm [6]: 0%
mortality at 200 ppm [7]: 0%
mortality at 400 ppm [7]: 0%
mortality at 200 ppm [8]: 0%
mortality at 400 ppm [8]: 0%
mortality at 12 ppm (corn rootworm): 0%
mortality at 24 ppm (corn rootworm): 0%

COc1ccc(CCN(C(C)=O)c2ccnc3cc(Cl)ccc23)cc1 [Example 125, N-(7-chloro-4-quinolinyl)-N-[2-(4-methoxyphenyl)ethyl]acetamide]
POWD MDEW [1]: + (20-89% control at 400 ppm)
RICE BLAST [2]: - (0-19% control at 400 ppm)
LEAF RUST [3]: - (0-19% control at 400 ppm)
GRAY MOLD [4]: - (0-19% control at 400 ppm)
DOWN MDEW [5]: - (0-19% control at 400 ppm)
mortality at 200 ppm [6]: 0%
mortality at 400 ppm [6]: 0%
mortality at 200 ppm [7]: 0%
mortality at 400 ppm [7]: 0%
mortality at 200 ppm [8]: 0%
mortality at 400 ppm [8]: 0%
mortality at 12 ppm (corn rootworm): 0%
mortality at 24 ppm (corn rootworm): 0%

CC(=O)N(CCc1ccc(Cl)cc1Cl)c1ccnc2cc(C(F)(F)F)ccc12 [Example 127, N-[2-(2,4-dichlorophenyl)ethyl]-N-[7-(trifluoromethyl)-4-quinolinyl]acetamide]
POWD MDEW [1]: + (20-89% control at 400 ppm)
RICE BLAST [2]: + (20-89% control at 400 ppm)
LEAF RUST [3]: + (20-89% control at 400 ppm)
GRAY MOLD [4]: - (0-19% control at 400 ppm)
DOWN MDEW [5]: + (20-89% control at 400 ppm)
mortality at 200 ppm [6]: 0%
mortality at 400 ppm [6]: 0%
mortality at 200 ppm [7]: 0%
mortality at 400 ppm [7]: 0%
mortality at 200 ppm [8]: 0%
mortality at 400 ppm [8]: 0%
mortality at 12 ppm (corn rootworm): 0%
mortality at 24 ppm (corn rootworm): 0%

CC(=O)N(CCc1ccc(C(C)(C)C)cc1)c1ccnc2c(F)cccc12 [Example 128, N-[4-(t-butyl)phenyl]ethyl-N-(8-fluoro-4-quinolinyl)acetamide]
POWD MDEW [1]: - (0-19% control at 400 ppm)
RICE BLAST [2]: + (20-89% control at 400 ppm)
LEAF RUST [3]: + (20-89% control at 400 ppm)
GRAY MOLD [4]: - (0-19% control at 400 ppm)
DOWN MDEW [5]: - (0-19% control at 400 ppm)
mortality at 200 ppm [6]: 0%
mortality at 400 ppm [6]: 0%
mortality at 200 ppm [7]: 0%
mortality at 400 ppm [7]: 0%
mortality at 200 ppm [8]: 0%
mortality at 400 ppm [8]: 0%
mortality at 12 ppm (corn rootworm): 0%
mortality at 24 ppm (corn rootworm): 0%

CC(=O)N(CCc1ccc(-c2ccccc2)cc1)c1ccnc2c(F)cccc12 [Example 130, N-[2-(1,1'-biphenyl)-4-ylethyl]-N-(8-fluoro-4-quinolinyl)acetamide]
POWD MDEW [1]: - (0-19% control at 400 ppm)
RICE BLAST [2]: - (0-19% control at 400 ppm)
LEAF RUST [3]: - (0-19% control at 400 ppm)
GRAY MOLD [4]: - (0-19% control at 400 ppm)
DOWN MDEW [5]: - (0-19% control at 400 ppm)
mortality at 200 ppm [6]: 0%
mortality at 400 ppm [6]: 0%
mortality at 200 ppm [7]: 0%
mortality at 400 ppm [7]: 0%
mortality at 200 ppm [8]: 0%
mortality at 400 ppm [8]: 0%
mortality at 12 ppm (corn rootworm): 0%
mortality at 24 ppm (corn rootworm): 0%
